Laboratory results taken from US20130217735A1, “FUNGICIDAL COMPOSITIONS AND METHODS OF USE” (Agri-Food and BioSciences Institute, priority 2010, published 2013).
Like-named read-outs stand apart in the source and are kept apart here.

Columns and labels:
Phoma foveata = experiment: Example 7 sensitivity testing of potato tuber pathogens to thiabendazole derivatives; format: cell-based; details: isolate Phoma foveata BL2 05 T3, Trial B
Description: (§1) In vitro tests of the IL thiabendazolium docusate were performed in comparison to the neutral fungicide using selected isolates of Fusarium spp., the cause of potato dry rot. F. coeruleum and F. culmorum are sensitive to thiabendazole whereas isolates of F. sambucinum are frequently resistant. Isolates of Phoma spp., the cause of gangrene, and Phytophthora erythroseptica, the cause of pink rot, were also tested. All except F. sambucinum ex SASA were isolated in a laboratory. F. sambucinum ex SASA was supplied by SASA (Science and Advice for Scottish Agriculture, Roddinglaw Road, Edinburgh, EH12 9F, UK).
(§2) In each test three replicate plates for each organism per concentration were used and tests were repeated at least once.

Phoma exigua = experiment: as above; format: cell-based; details: isolate Phoma exigua 9.1, Trial B
Description: as §1, §2

[1] = test system: Phytophthora erythroseptica; experiment: as above; format: cell-based; details: for Inhibition (%) of mycelial growth / inhibition at 25 µM / inhibition at 250 µM: Trial B; for inhibition at 25 µM / inhibition at 250 µM: Phytophthora erythroseptica, read-out: Inhibition (%) of mycelial growth
Description: as §1, §2

F. coeruleum [2] = experiment: as above; format: cell-based; details: Trial B; for inhibition at 25 µM / inhibition at 250 µM: read-out: Inhibition (%) of mycelial growth
Description: as §1, §2

F. sambucinum = experiment: as above; format: cell-based; details: Trial B; for inhibition at 25 µM / inhibition at 250 µM: Fusarium sambucinum, read-out: Inhibition (%) of mycelial growth
Description: as §1, §2

F. culmorum [3] = experiment: as above; format: cell-based; details: isolate F. culmorum P13, Trial B
Description: as §1, §2

P. erythroseptica = experiment: Example 5 agar plate mycelial growth test of TBZ derivatives; details: Trial A; for Inhibition (%) of mycelial growth: isolate P. erythroseptica BL2/08 P31
Description: (§3) Both TBZ docusate and TBZ stearate were tested at final concentrations of 250 μm and 25 μm in agar. To prepare the TBZ docusate stock solution for 250 μm, 0.155 g of TBZ docusate prepared according to Trial A was added to a 10 mL volumetric flask and was dissolved in 10 mL of ethanol. The solution was mixed thoroughly. To prepare the TBZ docusate stock solution for 25 μm, 1 ml of the above stock solution was pipetted into a second 10 mL flask and 10 mL ethanol was added. The solution was mixed thoroughly. To prepare the TBZ stearate stock solution for 250 μm, 0.121 g of TBZ stearate was added to a 10 mL volumetric flask and was dissolved in 10 mL ethanol. The solution was mixed thoroughly. To prepare the TBZ stearate stock solution for 25 μm, 1 mL of the 250 μm TBZ stearate stock solution was pipetted into a second 10 mL flask and 10 mL ethanol was added. The solution was mixed thoroughly.
(§4) The agar was prepared and autoclaved. Potato dextrose agar (PDA) was used for the Fusarium species and Phytophthora erythroseptica and malt agar was used for the Phoma species. The agar was allowed to cool to 50° C. Each of the stock solutions was added to the agar at the rate of 10 mL stock solution per liter of agar to give the two final concentrations, for both TBZ stearate and docusate, in agar. Also prepared were a 1% ethanol control (10 mL per liter of agar) and an untreated agar as a second control. The plates were prepared in triplicate for each concentration.
(§5) For each pathogen isolate tested, 3 plates of 250 μm/1, 3 plates of 25 μm/1, 3 plates of 1% ethanol, and 3 plates of untreated agar were inoculated using an agar plug cut with a no. 3 cork borer from the margin of an actively-growing culture on agar. The plates were incubated at an appropriate temperature (usually 18-20° C.) in darkness. The growth rate was monitored and assessed after 5-7 days. The growth was assessed by measuring colony diameters minus plug (two measurements at right-angles) per plate. The percent reduction was calculated with respect to the control.
(§6) Pure thiabendazole (TBZ; 0.5 g) obtained from MSD Agvet (Rahway, N.J.) was dissolved in water (10 mL) by adding the minimum required volume (c. 0.5 mL) of hypophosphorous acid and heating gently with stirring, then made up to 100 mL with water to give a stock solution (25 mM). TBZ docusate (0.155 g) or TBZ stearate (0.121 g) was dissolved in ethanol (100 ml) to give stock solutions (25 mM). A ten-fold dilution of each of these stock solutions was prepared (in water for TBZ and in ethanol for TBZ docusate and stearate). […] In addition, agar with 1% v/v ethanol and unamended agar was prepared (ethanol and unamended controls). The agar was poured into Petri plates (9 cm) and allowed to set.
(§7) Isolates of the appropriate potato tuber pathogens were grown on PDA for Fusarium spp. and Phytophthora erythroseptica or on MA for Phoma spp. Each isolate to be tested was inoculated onto three replicate plates of the two concentrations of each compound and onto ethanol and unamended agar controls using plugs (6 mm diameter) cut from the margins of actively growing cultures. Plates were incubated in darkness at 20° C. and mycelial growth measured (two measurements at right-angles for each plate) after 5-7 days (depending on the growth rates).

P. foveata = experiment: as above; details: Trial A; for Inhibition (%) of mycelial growth: isolate P. foveata BL2 05 T3
F. culmorum [4] = experiment: as above; format: cell-based; details: isolate F. culmorum P13, Trial A
F. sulphureum = experiment: as above; details: 5-7 days, TBZ docusate Trial A; for Inhibition (%) of mycelial growth: isolate F. sulphureum ex SASA
Description: as §3, §4, §5, §6, §7

P. exigua = experiment: as above; details: Trial A; for Inhibition (%) of mycelial growth: isolate P. exigua 9.1
Description: as §3, §4, §5, §6, §7

F. coeruleum [5] = experiment: as above; details: Trial A; for Inhibition (%) of mycelial growth: isolate F. coeruleum ex B7/06 T8
Description: as §3, §4, §5, §6, §7

[6] = isolate Phytophthora erythroseptica BL2/08 P31, 25 μM in agar
[7] = isolate Phytophthora erythroseptica BL2/08 P31, 250 μM in agar
[8] = isolate Phytophthora erythroseptica Rooster Eire, 25 μM in agar
[9] = isolate Phytophthora erythroseptica Rooster Eire, 250 μM in agar
[10] = isolate F. coeruleum ex B7/06 T8, 25 μM in agar
[11] = isolate F. coeruleum ex B7/06 T8, 250 μM in agar
[12] = isolate F. coeruleum ex B16/08 P31, 25 μM in agar
[13] = isolate F. coeruleum ex B16/08 P31, 250 μM in agar
[14] = isolate F. sambucinum L'gall 11, 25 μM in agar
[15] = isolate F. sambucinum L'gall 11, 250 μM in agar
[16] = isolate F. sambucinum L'gall 53, 25 μM in agar
[17] = isolate F. sambucinum L'gall 53, 250 μM in agar
[18] = isolate F. sambucinum ex SASA, 25 μM in agar
[19] = isolate F. sambucinum ex SASA, 250 μM in agar, vs 1% ethanol control

With `CCCCCCCCCCCCCCCCCC(=O)O.c1ccc2[nH]c(-c3cscn3)nc2c1` [TBZ stearate, thiabendazolium stearate] the “Inhibition (%) of mycelial growth” value (Phoma foveata; 25 μM in agar) was 97%, the “Inhibition (%) of mycelial growth” value (Phoma foveata; 250 μM in agar) was 99% and the “Inhibition (%) of mycelial growth” value (Phoma exigua; 25 μM in agar) was 95%. The “Inhibition (%) of mycelial growth” value (Phoma exigua; 250 μM in agar) was 99%, the “activity against P. erythroseptica compared with thiabendazole alone” value ([1]; in words, Table 5) was “did not enhance the activity” and the “Inhibition (%) of mycelial growth” value [1, 6] was 10%. For the same compound, the “Inhibition (%) of mycelial growth” value [1, 7] was 54%, the “Inhibition (%) of mycelial growth” value [1, 8] was 11% and the “Inhibition (%) of mycelial growth” value [1, 9] was 34%. For the same compound, the “Inhibition (%) of mycelial growth” value (F. coeruleum [2]; [10]) was 99%, the “Inhibition (%) of mycelial growth” value (F. coeruleum [2]; [11]) was 99% and the “Inhibition (%) of mycelial growth” value (F. coeruleum [2]; [12]) was 100%. The “Inhibition (%) of mycelial growth” value (F. coeruleum [2]; [13]) was 100%, the “Inhibition (%) of mycelial growth” value (F. sambucinum; [14]) was 10% and the “Inhibition (%) of mycelial growth” value (F. sambucinum; [15]) was 82%. For the same compound, the “Inhibition (%) of mycelial growth” value (F. sambucinum; [16]) was 20%, the “Inhibition (%) of mycelial growth” value (F. sambucinum; [17]) was 82% and the “Inhibition (%) of mycelial growth” value (F. sambucinum; [18]) was 24%. For the same compound, the “Inhibition (%) of mycelial growth” value (F. sambucinum; [19]) was 89%, the “Inhibition (%) of mycelial growth” value (F. culmorum [3]; 25 μM in agar) was 100% and the “Inhibition (%) of mycelial growth” value (F. culmorum [3]; 250 μM in agar) was 100%.

`c1ccc2[nH]c(-c3cscn3)nc2c1` [TBZ stearate, thiabendazolium stearate] was tested, and the “Inhibition (%) of mycelial growth” value (P. erythroseptica; 25 μM in agar) was 2%, the “Inhibition (%) of mycelial growth” value (P. erythroseptica; 250 μM in agar) was 69% and the “Inhibition (%) of mycelial growth” value (P. foveata; 25 μM in agar) was 96%. The “Inhibition (%) of mycelial growth” value (P. foveata; 250 μM in agar) was 99%, the “Inhibition (%) of mycelial growth” value (F. culmorum [4]; 25 μM in agar) was 100% and the “Inhibition (%) of mycelial growth” value (F. culmorum [4]; 250 μM in agar) was 100%. The “Inhibition (%) of mycelial growth” value (F. sulphureum; 25 μM in agar) was 25%, the “Inhibition (%) of mycelial growth” value (F. sulphureum; 250 μM in agar) was 90% and the “Inhibition (%) of mycelial growth” value (P. exigua; 25 μM in agar) was 93%. For the same compound, the “Inhibition (%) of mycelial growth” value (P. exigua; 250 μM in agar) was 98%, the “Inhibition (%) of mycelial growth” value (F. coeruleum [5]; 25 μM in agar) was 98% and the “Inhibition (%) of mycelial growth” value (F. coeruleum [5]; 250 μM in agar) was 98%.

In the case of `c1ccc2[nH]c(-c3cscn3)nc2c1` [TBZ, thiabendazole, reference compound], the inhibition at 250 µM (P. erythroseptica; Phytophthora erythroseptica, read-out: Inhibition (%) of mycelial growth, isolate P. erythroseptica BL2/08 P31, 250 μM in agar) is reported as 76%, the “Inhibition (%) of mycelial growth” value (P. erythroseptica; 25 μM in agar) is reported as 9% and the inhibition at 25 µM (P. foveata; Boeremia foveata, read-out: Inhibition (%) of mycelial growth, isolate P. foveata BL2 05 T3, 25 μM in agar) is reported as 98%. It also gave an inhibition at 250 µM (P. foveata; Boeremia foveata, read-out: Inhibition (%) of mycelial growth, isolate P. foveata BL2 05 T3, 250 μM in agar) of 100%, an inhibition at 25 µM (F. culmorum [4]; Fusarium culmorum, 25 μM in agar) of 100% and an inhibition at 250 µM (F. culmorum [4]; Fusarium culmorum, 250 μM in agar) of 100%. It also gave an inhibition at 25 µM (Phoma foveata; Boeremia foveata, 25 μM in agar, read-out: Inhibition (%) of mycelial growth) of 98%, an inhibition at 250 µM (Phoma foveata; Boeremia foveata, 250 μM in agar, read-out: Inhibition (%) of mycelial growth) of 100% and an inhibition at 25 µM (Phoma exigua; 25 μM in agar, read-out: Inhibition (%) of mycelial growth) of 95%. It also gave an inhibition at 250 µM (Phoma exigua; 250 μM in agar, read-out: Inhibition (%) of mycelial growth) of 100%, an inhibition at 25 µM [1, 6] of 4% and an inhibition at 250 µM [1, 7] of 51%. For the same compound, the inhibition at 25 µM [1, 8] was 8%, the inhibition at 250 µM [1, 9] was 31% and the inhibition at 25 µM (F. coeruleum [2]; [10]) was 99%. The inhibition at 250 µM (F. coeruleum [2]; [11]) was 99%, the inhibition at 25 µM (F. coeruleum [2]; [12]) was 100% and the inhibition at 250 µM (F. coeruleum [2]; [13]) was 100%. The inhibition at 25 µM (F. sambucinum; [14]) was 8%, the inhibition at 250 µM (F. sambucinum; [15]) was 76% and the inhibition at 25 µM (F. sambucinum; [16]) was 19%. For the same compound, the inhibition at 250 µM (F. sambucinum; [17]) was 93%, the inhibition at 25 µM (F. sambucinum; [18]) was 22% and the inhibition at 250 µM (F. sambucinum; [19]) was 89%. The inhibition at 25 µM (F. culmorum [3]; Fusarium culmorum, 25 μM in agar, read-out: Inhibition (%) of mycelial growth) was 100%, the inhibition at 250 µM (F. culmorum [3]; Fusarium culmorum, 250 μM in agar, read-out: Inhibition (%) of mycelial growth) was 100% and the inhibition at 25 µM (F. sulphureum; read-out: Inhibition (%) of mycelial growth, isolate F. sulphureum ex SASA, 25 μM in agar) was 17%. It also gave an inhibition at 250 µM (F. sulphureum; read-out: Inhibition (%) of mycelial growth, isolate F. sulphureum ex SASA, 250 μM in agar) of 87%, an inhibition at 25 µM (P. exigua; Boeremia inoxydabilis, read-out: Inhibition (%) of mycelial growth, isolate P. exigua 9.1, 25 μM in agar) of 92% and an inhibition at 250 µM (P. exigua; Boeremia inoxydabilis, read-out: Inhibition (%) of mycelial growth, isolate P. exigua 9.1, 250 μM in agar) of 100%. For the same compound, the inhibition at 25 µM (F. coeruleum [5]; read-out: Inhibition (%) of mycelial growth, isolate F. coeruleum ex B7/06 T8, 25 μM in agar) was 99% and the inhibition at 250 µM (F. coeruleum [5]; read-out: Inhibition (%) of mycelial growth, isolate F. coeruleum ex B7/06 T8, 250 μM in agar) was 98%.

thiabendazolium docusate [TBZ docusate] was tested, and the “Inhibition (%) of mycelial growth” value (P. erythroseptica; 25 μM in agar) was 62%, the “Inhibition (%) of mycelial growth” value (P. erythroseptica; 250 μM in agar) was 100% and the “Inhibition (%) of mycelial growth” value (P. foveata; 25 μM in agar) was 95%. The “Inhibition (%) of mycelial growth” value (P. foveata; 250 μM in agar) was 99%, the “Inhibition (%) of mycelial growth” value (F. culmorum [4]; 25 μM in agar) was 100% and the “Inhibition (%) of mycelial growth” value (F. culmorum [4]; 250 μM in agar) was 100%. For the same compound, the “Inhibition (%) of mycelial growth” value (Phoma foveata; 25 μM in agar) was 95%, the “Inhibition (%) of mycelial growth” value (Phoma foveata; 250 μM in agar) was 99% and the “Inhibition (%) of mycelial growth” value (Phoma exigua; 25 μM in agar) was 94%. For the same compound, the “Inhibition (%) of mycelial growth” value (Phoma exigua; 250 μM in agar) was 99%, the “Inhibition (%) of mycelial growth” value [1, 6] was 33% and the “Inhibition (%) of mycelial growth” value [1, 7] was 97%. The “Inhibition (%) of mycelial growth” value [1, 8] was 11%, the “Inhibition (%) of mycelial growth” value [1, 9] was 91% and the “Inhibition (%) of mycelial growth” value (F. coeruleum [2]; [10]) was 99%. The “Inhibition (%) of mycelial growth” value (F. coeruleum [2]; [11]) was 99%, the “Inhibition (%) of mycelial growth” value (F. coeruleum [2]; [12]) was 100% and the “Inhibition (%) of mycelial growth” value (F. coeruleum [2]; [13]) was 100%. For the same compound, the “Inhibition (%) of mycelial growth” value (F. sambucinum; [14]) was 19%, the “Inhibition (%) of mycelial growth” value (F. sambucinum; [15]) was 83% and the “Inhibition (%) of mycelial growth” value (F. sambucinum; [16]) was 11%. The “Inhibition (%) of mycelial growth” value (F. sambucinum; [17]) was 68%, the “Inhibition (%) of mycelial growth” value (F. sambucinum; [18]) was 19% and the “Inhibition (%) of mycelial growth” value (F. sambucinum; [19]) was 96%. The “Inhibition (%) of mycelial growth” value (F. culmorum [3]; 25 μM in agar) was 100%, the “Inhibition (%) of mycelial growth” value (F. culmorum [3]; 250 μM in agar) was 100% and the “Inhibition (%) of mycelial growth” value (F. sulphureum; 25 μM in agar) was 27%. For the same compound, the “Inhibition (%) of mycelial growth” value (F. sulphureum; 250 μM in agar) was 97%, the “Inhibition (%) of mycelial growth” value (P. exigua; 25 μM in agar) was 90% and the “Inhibition (%) of mycelial growth” value (P. exigua; 250 μM in agar) was 98%. For the same compound, the “Inhibition (%) of mycelial growth” value (F. coeruleum [5]; 25 μM in agar) was 98% and the “Inhibition (%) of mycelial growth” value (F. coeruleum [5]; 250 μM in agar) was 98%.
